Data from patent US7741295B2, “Sir2 products and activities” (Albert Einstein College of Medicine of Yeshiva University, priority 2001, dated 2010).

Columns and labels:
esterase activity [1] = assay: Breakdown of AADPR by esterase activity in hamster ovary cell extract; type: in vitro ADME; conditions: hamster ovary cells extract
Description: (§1) The use of AADPR or radiolabeled AADPR is a strategy to characterize and discover the esterases (or other enzymes) that break down or utilize AADPR in vivo. Specifically, AADPR breakdown can be measured by HPLC or TLC assay. When radiolabels are used, amounts of AADPR necessary for this purpose can be as small as 250 pmoles.

esterase activity [2] = assay: Breakdown of AADPR by esterase activity in rat liver extract; type: in vitro ADME
Description: as §1

Sir2 = conditions: cited from earlier work
Sir2Af1 = molecular target: T1, Sir2Af1 (Archaeoglobus fulgidus, UniProt O28597); conditions: cited from earlier work
T1 construct: made in house
T1 sequence (O28597 1-245): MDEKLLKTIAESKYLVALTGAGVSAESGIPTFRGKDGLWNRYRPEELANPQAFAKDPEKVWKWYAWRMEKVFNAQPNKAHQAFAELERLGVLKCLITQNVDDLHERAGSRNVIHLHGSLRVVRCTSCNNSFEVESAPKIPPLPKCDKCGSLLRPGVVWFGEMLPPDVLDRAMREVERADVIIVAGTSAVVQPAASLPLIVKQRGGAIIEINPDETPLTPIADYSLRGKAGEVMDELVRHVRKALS

AfSir2 = assay: Inhibition of AfSir2 by ADPR; type: biochemical, Archaeoglobus fulgidus
[3] = Stability of authentic β-1′-AADPR (elimination as a Sir2p product); type: physicochemical; conditions: 100 μM, 40 mM phosphate buffer pH 6.25, one hr at 55° C., HPLC
Description: Elimination of β-1′-AADPR as a Sir2p product.

[4] = Interconversion rates of 2′- and 3′-AADPR (HPLC, NMR); type: physicochemical
Experimental: Interconversion rates of 2′- and 3′-AADPR. Sample of both 2′- and 3′-AADPR were incubated at 15° C. and analyzed by HPLC at 40 min intervals (C-18 column; 50 mM ammonium acetate pH 5.0). The percent of the 3′-isomer at a given time was fit to the equation 3′-AADPR (%)=Pa exp (−kt)+Pf where Pa+Pf=P0; where Pa is the percent of the 3′-isomer above equilibrium at time=0, t is time and k is the first order rate constant for the conversion. Pf is the percent at equilibrium and P0 is the initial percent. HPLC and NMR analysis established the 2′- and 3′-isomers concentration as a function of time. NMR was in 10% d4-methanol/90% D2O at 0° C. or in 100% D2O at 20° C.

Sir2Af2 [5] = molecular target: T2, Sir2Af2 (Archaeoglobus fulgidus, UniProt O30124); assay: Low temperature ^1H NMR analysis of Sir2p reaction products (order of product formation); type: biochemical; conditions: 5° C.
T2 construct: made in house
T2 sequence (O30124 1-253): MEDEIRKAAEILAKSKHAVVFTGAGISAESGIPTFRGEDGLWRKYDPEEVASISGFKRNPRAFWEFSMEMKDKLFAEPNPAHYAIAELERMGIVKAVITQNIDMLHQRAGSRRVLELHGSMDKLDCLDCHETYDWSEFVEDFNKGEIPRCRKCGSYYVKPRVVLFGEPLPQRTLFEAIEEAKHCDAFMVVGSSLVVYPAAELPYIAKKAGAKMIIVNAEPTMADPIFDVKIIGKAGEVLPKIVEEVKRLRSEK
Experimental: Low temperature studies of Sir2Af2 to identify order of product production. Sir2Af2 catalyzed deacetylation reactions were performed at 8° C. to determine the order of product formation. A 200 μL solution containing 150 μM NAD^+, 300 μM peptide JB12, in 40 mM potassium phosphate pH 6.2 were cooled to 8° C. and then 1 μL of 9 μg/μL of Sir2Af2 was added to initiate the reaction. Reactions were assayed by HPLC using 0.5% TFA as an eluant. Peals at 17 and 20 min were used to quantitate 3′- and 2′-AADPR at 30 minute intervals.
Low temperature ^1H NMR analysis of Sir2p reaction products. A solution of 1.7 mg Sir2Af2 enzyme in 95% D2O, 50 mM potassium phosphate pH 6.3 was concentrated to 550 μL using centrifugation filtration. This sample was mixed with 2 mg JB12 peptide and cooled to 5° C. in a 600 MHz NMR spectrometer. Spectra were obtained and 280 μL of ice-chilled 22 mM NAD^+ solution in 50 mM potassium phosphate pH 6.3 in 99% D2O was added to initiate the reaction. ^1H NMR 1D spectra were obtained at intervals over 18 hr at 5° C.

Sir2Af2 [6] = molecular target: T2, Sir2Af2; assay: Ara-F-NAD^+ as NAD^+ analogue: substrate and nicotinamide exchange reactions with Sir2Af2; type: biochemical; conditions: for [Carbonyl-^14C]-nicotinamide exchange catalysed by Sir2Af2: 5 mM nicotinamide, 300 μM peptide; for Substrate in Sir2Af2 deacetylation of peptide JB12: ara-F-NAD^+ 50 μM, JB12 300 μM, pH 6.25, C-18 HPLC
Experimental: (§2) Ara-F-NAD^+ as an NAD^+ analogue. Ara-F NAD^+ is an inhibitor of ADP-ribosyl-transferase and was used to evaluate Sir2Af2. Ara-F-NAD^+ was synthesized as previously reported^44. Deacetylation of peptide JB12 (300 μM) by Sir2Af2 (10 μg) in the presence of ara-F-NAD^+ (50 μM) was tested in 200 μL of 40 mM potassium phosphate pH 6.25. No change of ara-F-NAD^+ was detected by C-18 reverse phase HPLC. […] A control run with […] and NAD^+ established [Carbonyl-^14C]-nicotinamide exchange into NAD^+, confirming the Sir2 base-exchange reaction. […] Inhibition of Sir2Af2 by ara-F-NAD^+ was evaluated by incubation of Sir2Af2 enzyme (7 μM) and ara-F-NAD^+ (20 μM) in the presence of 300 μM JB12 peptide in potassium phosphate pH 6.25 buffer. A reaction mixture lacking ara-F NAD^+ was the control. A positive control used the same reaction components but 500 nM CD38 in the presence of 5 μM ara-F-NAD^+. Reactions were initiated after 6 h by adding 150 μM NAD^+. Reactions were evaluated for catalytic turnover using HPLC. Catalytic turnover of Sir2Af2 was not inhibited by ara-F-NAD^+ under these reaction conditions.

Sir2Af2 [7] = molecular target: T2, Sir2Af2; assay: Inhibition of Sir2Af2 catalytic turnover by ara-F-NAD^+ (HPLC); type: biochemical; conditions: Sir2Af2 7 μM, ara-F-NAD^+ 20 μM, 300 μM JB12, 6 h then 150 μM NAD^+
Experimental: as §2

CD38 = CD38 controls with ara-F-NAD^+ (base exchange, inhibition); type: biochemical, human
Experimental: as §2

[8] = cited from earlier work
[9] = test system: ADP-ribosyltransfer enzymes; conditions: cited from earlier work

acetyl adenosine diphosphate ribose [AADPR]
Breakdown of AADPR to ADPR and acetate (esterase activity [1]): high esterase activity exists that can breakdown AADPR
Breakdown of AADPR to ADPR and acetate (esterase activity [2]): high esterase activity exists that can breakdown AADPR

NC(=O)c1cccnc1 [nicotinamide]
Inhibition of Sir2 (Sir2): inhibits the enzyme

acetylated BSA: acetylated BSA, a non physiologic substrate
Substrate of Sir2Af1 as reported in the literature (Sir2Af1): is a substrate

adenosine diphosphate ribose [ADPR]
Inhibition of AfSir2 (AfSir2): potent inhibitor

CC(=O)O[C@@H]1O[C@H](COP(=O)(O)OP(=O)(O)OC[C@H]2O[C@@H](n3cnc4c(N)ncnc43)[C@H](O)[C@@H]2O)[C@@H](O)[C@H]1O [β-1′-AADPR]
Change of β-1′-AADPR and production of 2′- or 3′-AADPR on incubation [3]: no change

CC(=O)O[C@@H]1[C@@H](COP(=O)(O)OP(=O)(O)OC[C@H]2O[C@@H](n3cnc4c(N)ncnc43)[C@H](O)[C@@H]2O)OC(O)[C@@H]1O (stereo partly drawn) [3′-AADPR, 3′-O-acetyl-ADP-ribose]
rate of chemical exchange of the acetyl group ([4]; 15° C.): 0.32 h⁻¹
equilibrium constant K ([4]; 15° C., HPLC peak integrations of the 2′- and 3′-isomers): 1.4
first-order rate constant for acetyl migration k3′ to 2′ ([4]; fit to exponential decay curve, 15° C.): 0.32 h⁻¹

CC(=O)O[C@H]1C(O)O[C@H](COP(=O)(O)OP(=O)(O)OC[C@H]2O[C@@H](n3cnc4c(N)ncnc43)[C@H](O)[C@@H]2O)[C@H]1O (stereo partly drawn) [2′-AADPR, 2′-O-acetyl-ADP-ribose]
rate of chemical exchange of the acetyl group ([4]; 15° C.): 0.45 h⁻¹
α/β anomeric equilibrium rate ([4]; NMR): > 50 s⁻¹
calculated value for k3′ to 2′ ([4]; calculated from K and the measured rate constant, 15° C.): 0.45 h⁻¹
time to establish 2′/3′ equilibrium ([4]; physiological temperatures of 37° C.): ≤ 60 min
ratio kcat/k2′-3′ (Sir2Af2 [5]): 20

NC(=O)c1ccc[n+]([C@@H]2O[C@H](COP(=O)([O-])OP(=O)(O)OC[C@H]3O[C@@H](n4cnc5c(N)ncnc54)[C@H](O)[C@@H]3O)[C@@H](O)[C@H]2F)c1 [ara-F-NAD^+]
[Carbonyl-^14C]-nicotinamide exchange catalysed by Sir2Af2 (Sir2Af2 [6]): no radioactivity incorporated
[Carbonyl-^14C]-nicotinamide exchange catalysed by Sir2Af2 (Sir2Af2 [6]; listed as Ara-F NAD^+): did not serve as a substrate
Substrate in Sir2Af2 deacetylation of peptide JB12 (Sir2Af2 [6]): No change
Substrate in Sir2Af2 deacetylation of peptide JB12 (Sir2Af2 [6]; listed as Ara-F NAD^+): did not serve as a substrate
Inhibition of Sir2Af2 catalytic turnover (Sir2Af2 [7]): not inhibited
Inhibition of Sir2Af2 catalytic turnover (Sir2Af2 [7]; listed as Ara-F-NAD^+): did not inactivate
Activity (inactivation) on CD38 positive control (CD38; 500 nM CD38, 5 μM ara-F-NAD^+): activity on the control using CD38
Base exchange with [^14C]nicotinamide catalysed by CD38 (CD38; control): full base exchange
Stability relative to NAD^+ [8]: roughly 50 times
Inhibitor of ADP-ribosyltransfer enzymes [9]: powerful inhibitor
